Literature values as cited in patent US20250161397A1, “PLANT BASED FORMULATION FOR FAST PAIN RELIEF AND PREPARATION METHOD” (ARJUNA NATURAL PRIVATE LIMITED, priority 2022, published 2025).

Experiments:
COX-1 [1] = conditions: Goel 2001
12/15 LOX = molecular target: T1, 12/15 LOX (Rattus norvegicus, UniProt Q02759); conditions: in vitro, rat lung cytosolic fraction; Bezáková 2014
T1 construct: from tissue; host or cells: rat lung cytosolic fraction
T1 sequence (Q02759 1-663): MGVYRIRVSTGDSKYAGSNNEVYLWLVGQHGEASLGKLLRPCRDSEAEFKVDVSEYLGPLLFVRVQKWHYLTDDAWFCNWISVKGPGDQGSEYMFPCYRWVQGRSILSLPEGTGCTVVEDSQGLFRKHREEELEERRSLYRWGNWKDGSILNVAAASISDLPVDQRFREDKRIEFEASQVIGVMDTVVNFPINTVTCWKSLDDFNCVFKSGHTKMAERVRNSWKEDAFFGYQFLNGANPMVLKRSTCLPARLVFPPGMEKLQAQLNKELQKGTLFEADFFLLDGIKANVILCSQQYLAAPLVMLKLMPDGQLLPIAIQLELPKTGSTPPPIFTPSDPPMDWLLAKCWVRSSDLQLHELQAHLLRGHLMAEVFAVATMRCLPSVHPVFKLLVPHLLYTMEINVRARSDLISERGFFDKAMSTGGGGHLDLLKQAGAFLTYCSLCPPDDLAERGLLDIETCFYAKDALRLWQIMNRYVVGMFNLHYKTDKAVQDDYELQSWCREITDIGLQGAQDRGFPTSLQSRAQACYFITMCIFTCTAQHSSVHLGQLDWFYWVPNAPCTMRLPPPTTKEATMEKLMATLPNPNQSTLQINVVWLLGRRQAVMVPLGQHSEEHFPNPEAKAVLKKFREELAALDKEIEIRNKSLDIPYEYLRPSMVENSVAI

5-LOX = molecular target: T2, 5-LOX (Homo sapiens, UniProt P09917); conditions: literature
T2 sequence (P09917 1-674): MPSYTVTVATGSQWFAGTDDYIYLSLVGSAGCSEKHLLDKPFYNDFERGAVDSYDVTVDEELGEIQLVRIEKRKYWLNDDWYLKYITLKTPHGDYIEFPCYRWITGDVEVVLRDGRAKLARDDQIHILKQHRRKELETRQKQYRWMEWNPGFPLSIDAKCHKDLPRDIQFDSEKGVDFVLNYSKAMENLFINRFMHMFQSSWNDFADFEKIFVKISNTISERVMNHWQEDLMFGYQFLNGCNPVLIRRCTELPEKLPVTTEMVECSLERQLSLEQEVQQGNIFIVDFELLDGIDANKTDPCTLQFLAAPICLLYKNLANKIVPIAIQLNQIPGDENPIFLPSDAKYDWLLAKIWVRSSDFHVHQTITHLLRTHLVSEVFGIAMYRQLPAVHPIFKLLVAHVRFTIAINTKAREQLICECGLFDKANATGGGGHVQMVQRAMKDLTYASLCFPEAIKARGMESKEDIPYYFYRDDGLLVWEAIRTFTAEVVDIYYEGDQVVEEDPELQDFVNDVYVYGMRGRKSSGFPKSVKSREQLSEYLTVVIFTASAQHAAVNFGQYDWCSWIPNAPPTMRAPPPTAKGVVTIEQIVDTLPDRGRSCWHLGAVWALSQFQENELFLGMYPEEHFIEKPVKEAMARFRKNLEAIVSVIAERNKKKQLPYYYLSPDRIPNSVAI

COX-2 [2] = conditions: HT-29 human colon cancer cells; Goel 2001
COX-1 [3] = molecular target: COX-1 (Homo sapiens, UniProt P23219); conditions: Siemoneit 2008
COX-2 [4] = molecular target: T3, COX-2 (Homo sapiens, UniProt P35354); conditions: Siemoneit 2008
T3 sequence (P35354 18-604): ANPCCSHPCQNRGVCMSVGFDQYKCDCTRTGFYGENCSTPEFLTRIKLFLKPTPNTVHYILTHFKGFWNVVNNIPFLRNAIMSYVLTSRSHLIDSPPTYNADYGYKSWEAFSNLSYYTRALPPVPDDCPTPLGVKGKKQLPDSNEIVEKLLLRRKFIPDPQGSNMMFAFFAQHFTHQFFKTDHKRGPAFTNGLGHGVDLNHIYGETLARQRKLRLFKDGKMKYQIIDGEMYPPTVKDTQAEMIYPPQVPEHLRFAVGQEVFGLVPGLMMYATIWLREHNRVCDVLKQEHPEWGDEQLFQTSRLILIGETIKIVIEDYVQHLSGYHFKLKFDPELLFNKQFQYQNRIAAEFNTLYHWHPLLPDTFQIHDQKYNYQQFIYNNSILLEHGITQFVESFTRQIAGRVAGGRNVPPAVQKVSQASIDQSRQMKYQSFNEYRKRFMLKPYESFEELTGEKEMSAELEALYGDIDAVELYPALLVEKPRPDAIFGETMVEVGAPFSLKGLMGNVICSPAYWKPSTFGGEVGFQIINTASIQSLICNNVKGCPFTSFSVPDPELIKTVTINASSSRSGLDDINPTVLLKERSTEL

Chain of COX-1 (Homo sapiens, UniProt P23219) (P23219 24-599): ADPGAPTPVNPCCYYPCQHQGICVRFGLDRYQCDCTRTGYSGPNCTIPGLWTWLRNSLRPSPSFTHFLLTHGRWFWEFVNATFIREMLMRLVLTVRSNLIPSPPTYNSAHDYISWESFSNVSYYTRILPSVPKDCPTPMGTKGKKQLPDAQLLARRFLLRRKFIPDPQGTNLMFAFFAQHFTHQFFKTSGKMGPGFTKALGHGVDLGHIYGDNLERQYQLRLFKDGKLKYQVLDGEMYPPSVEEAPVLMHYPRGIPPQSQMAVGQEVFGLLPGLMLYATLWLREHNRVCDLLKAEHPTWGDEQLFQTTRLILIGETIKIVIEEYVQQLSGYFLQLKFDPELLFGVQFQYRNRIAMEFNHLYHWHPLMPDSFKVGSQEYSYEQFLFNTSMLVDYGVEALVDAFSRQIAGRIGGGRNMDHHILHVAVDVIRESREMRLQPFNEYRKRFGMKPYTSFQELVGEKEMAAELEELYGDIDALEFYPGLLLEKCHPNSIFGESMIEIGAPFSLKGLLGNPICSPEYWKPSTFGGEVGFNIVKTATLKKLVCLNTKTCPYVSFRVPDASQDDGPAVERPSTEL

Structure (SMILES)	effect on mRNA and protein expression of COX-1 (COX-1 [1])	inhibition of 12/15 LOX (12/15 LOX)	inhibition of 5-LOX (5-LOX)	effect on mRNA and protein expression of COX-2 (COX-2 [2])	inhibition of COX-1 (COX-1 [3])	inhibition of COX-2 (COX-2 [4])
COc1cc(/C=C/C(=O)CC(=O)/C=C/c2ccc(O)c(OC)c2)ccc1O [Curcumin, curcumin]	not COX-1	competitive inhibitor of 12/15 LOX	bind to the active site of 5-LOX and inhibit its activity	inhibit the mRNA and protein expression of COX-2		
CC(=O)O[C@@H]1CC[C@@]2(C)[C@@H](CC[C@]3(C)[C@@H]2C(=O)C=C2[C@@H]4[C@@H](C)[C@H](C)CC[C@]4(C)CC[C@]23C)[C@@]1(C)C(=O)O [AKBA, acetyl-11-keto-β-boswellic acid]			good inhibition of 5-LOX		reversible inhibition of COX-1	less efficiently inhibited by AKBA as compared to COX-1
